According to US20150140015A1, “METHODS AND PHARMACEUTICAL COMPOSITIONS FOR THE TREATMENT OF PANCREATIC CANCER” (INSERM (Institut National de la Sante et de la Recherche …, priority 2013, published 2015):

Columns and labels:
[1] = test system: AsPC-1 cells xenografted in nude mice; test: Tumorigenicity assay: AsPC-1 cells xenografted in nude mice; assay type: in vivo
[2] = test system: parental HPAF-II cells xenografted in nude mice; test: Tumorigenicity assay: parental HPAF-II cells xenografted in nude mice; assay type: in vivo; settings: daily treatment with 1 mole orexin-A/kg (so in the source)
Protocol: FIG. 8A-C. Effect of daily inoculation of orexin-A on the growth of tumors developed by xenografting OX1R expressing recombinant HPAF-II cells in nude mice. Parental HPAF-II (A) or recombinant OX1R/HPAF-II/cells (B) were inoculated in the flank of nude mice at day 0. Mice were injected daily intraperitoneally with 100 μl of 1 μmoles of orexin-A/Kg solutions starting at day 0 for both cell lines (◯) or day 28 for OX1R/HPAF-II cells (▴) or with 100 μl of PBS ([…]) for controls. The development of tumors was followed by caliper measurement; C. Formalin-fixed xenografted HPAF-II or OX1R/HPAF-II tumors from nude mice intraperitoneally injected daily or not with 1 μmoles/Kg orexin-A were analyzed by cleaved caspase-3 immunostaining. Cleaved caspase-3 positive cells were counted in 10 different fields, each comprising 500 tumoral cells, in the presence (black bars) or absence (white bars) of 50 days orexin-A treatment. Data are the means±SE of 6 tumors in each group; *** p<0.01 versus control.
Control mice received PBS.

AsPC-1 cells = test: Cell growth of AsPC-1 cells (cell counting); assay type: cell-based, human; settings: Example 1; Orexin-A treatment of the OX1R-expressing AsPC-1 cell line
Protocol: FIG. 9. Effect of Orexin-B anti-OX1R antibodies on cell growth of AsPC-1 cells. Cells were incubated with 0.1 μM of OxB or antibodies for 48 h in culture medium and then cells were counted in order to estimate the cellular growth.
The aims of this study were: 1/ to investigate the presence of OX1R in human PAC cell lines and to analyze orexin-A effects in relation to apoptosis; 2/ to develop an in vivo heterotopic xenograft model from the cell lines expressing OX1R, for the study of tumor growth in response to Orexin-A. The expression of OX1R was studied at mRNA (RT-PCR), proteins (immunocytochemistry) and functional levels in 3 PAC cell lines (AsPC-1, HPAF-II and SW1990). The development of an animal model (heterotopic xenograft) from the cell line expressing OX1R, has allowed studying the effect of Orexin-A in tumor growth. Resected tumors were analyzed by immunohistochemistry. Only AsPC-1 cell line expresses OX1R.
The development of antibodies directed against OX1R were produced by a phage display strategy and the antibody selection was performed by using HEK and HEK stably expressing OX1R (HEK-OX1R) cell lines. […] Cells were incubated with 0.1 μM of OxB or antibodies for 48 h in culture medium and then cells were counted in order to estimate the cellular growth. […]

[3] = test system: HPAF-II cells expressing recombinant OX1R; test: Quantification of apoptotic cells by annexin V-PE labeling in recombinant OX1R/HPAF-II cells; assay type: cell-based, human; settings: 1 μM orexin-A, 48 hr; recombinant HPAF-II expressing OX1R
Protocol: FIGS. 5A and B. Effect of orexin-A on apoptosis in OX1R expressing recombinant OX1R/HPAF-II cells. A, Parental HPAF-II and recombinant OX1R/HPAF-II cells were challenged with (black bars) or without (white bars) 1 μM orexin-A for 48 hr in the absence or presence of the SHP-2 protein tyrosine phosphatase inhibitor, NSC-87877 (50 μM). Apoptosis was measured by determination of annexin V-PE binding. Results are expressed as the percentage of apoptotic cells, and are the means±SE of three separate experiments. ***p<0.001; ns, non-significant; B, paraformaldehyde-fixed HPAF-II cells and recombinant OX1R/HPAF-II cells were challenged with or without (Basal) 1 μM orexin-A for 48 hr. Indirect immunostaining of activated caspase-3 in parental HPAF-II cells (left panels) and recombinant OX1R/HPAF-II cells (right panels) in the presence (bottom panels) or tabsence (top panels) of orexin-A is illustrated in B. […]
AsPC-1, SW 1990, HPAF-II and HPAF-II/hOX1R cells (seeded at 5×10^4 cells/well) were grown in 24-well plates for 24 hr under the culture conditions described above. […] Results are expressed as the percentage of apoptotic phycoerythrin-labelled Annexin V (Annexin V-PE) positive cells and are the means of 3 independent analyses.

In the case of “orexin-A: 33 amino acid hypothalamic neuropeptide, OX1R agonist, SEQ ID NO:2; peptide from GL Biochemicals”, the “tumor volume decrease under other injection frequencies” value ([1]; 2 or 3 injections/week (data not shown)) is reported as “same results”, the “reduction of tumor volume versus daily injections” value ([1]; once or twice weekly therapy (data not shown)) is reported as “equivalent or even more effective” and the tumor growth inhibition [2] is reported as “unable to promote tumor growth inhibition”. The cell growth inhibition (AsPC-1 cells) was 32% and the “annexin-V positive apoptotic cells” value [3] was 17.8%.
